For this experiment, the target named is T1, AgrA (Staphylococcus aureus, UniProt P0A0I7).
T1 construct: endogenous in cells; host or cells: S. aureus USA300 strain UAMS-1625 carrying a P3-lacZ reporter plasmid
Put plainly: cell-based. Further details: species or system S. aureus. The following applies: for Ratio IC50 (in presence of HSA)/IC50 (in absence of HSA): 40 mg/mL HSA versus no HSA. The method, then:
The inventive compounds are 3-(phenylsulfonyl)-[1,2,3]triazolo[1,5a]quinazolin-5(4h)-one derivatives comprising an N-bound piperazine or homopiperazine at the 8-position of the [1,2,3]triazolo[1,5a]quinazolin-5(4h)-one core, further substituted (on the second nitrogen atom) by an (optionally substituted) acetyl or propionyl amide group. […] Specifically, the reporter gene lacZ (which encodes the protein product β-galactosidase) was transfected into S. aureus with a plasmid under control of the P3 promoter. The compounds were serially diluted in lysogeny broth (LB), and incubated with S. aureus. Following incubation, the S. aureus cells were lysed and treated with 4-methylumbelliferyl-galactopyranoside (MUG). The β-galactosidase produced by expression of lacZ cleaved the MUG into galactopyranose and 4-methylumbelliferone, which was measured by fluorescence.
The resulting reporter strain was used to measure AgrA inhibitory activity as follows. From an overnight culture plate, cells were resuspended in 0.9% (w/v) saline solution and bacterial inoculum was prepared in LB medium with 5×10^5 CFU/ml. Compounds were two-fold serially diluted in LB and 50 μL of this 10× concentrated samples were added into the 96-deep well plate. 500 μL of bacterial suspension was finally added to the compounds or DMSO control. Plates were covered and incubated with shaking at 37° C. After 18 hours incubation, 100 μL was transferred to a new clear 96-well plate and the OD600 was measured using a TECAN Infinite F200 microplate reader to control for growth inhibition. Another 100 μL was transferred to a new black 96-well plate containing 30 μL of lysis buffer (20 mM Tris/HCl, 3 mM MgCl2, 0.5% Tween 20 (v/v), 0.5% NP-40 (v/v)) and the plate was incubated with shaking at 37° C. for 60 min. 20 μL of the substrate MUG (4-Methylumbelliferyl O-D-galactopyranoside) at 0.25 mg/ml was added and the fluorescence (excitation: 360 nm, emission: 450 mu) was measured with a TECAN Infinite F200 microplate reader after 3 hours incubation at 37° C. with shaking. The IC50 was determined using GraphPad PRISM after normalization to DMSO control.

The mark [1] stands for this setting: IC50 at 40 mg/mL HSA, LB medium supplemented with human serum albumin 40 mg/mL.
[2] abbreviates: IC50 without HSA, LB medium, no human serum albumin, 18 hours incubation.
Where [3] appears, read: LB medium supplemented with human serum albumin 40 mg/mL.
Setting [4] is: LB medium, no human serum albumin, 18 hours incubation.

The structures appear in SMILES notation. pIC50: −log10 of the molar value.

T1 sequence (P0A0I7 whole entry): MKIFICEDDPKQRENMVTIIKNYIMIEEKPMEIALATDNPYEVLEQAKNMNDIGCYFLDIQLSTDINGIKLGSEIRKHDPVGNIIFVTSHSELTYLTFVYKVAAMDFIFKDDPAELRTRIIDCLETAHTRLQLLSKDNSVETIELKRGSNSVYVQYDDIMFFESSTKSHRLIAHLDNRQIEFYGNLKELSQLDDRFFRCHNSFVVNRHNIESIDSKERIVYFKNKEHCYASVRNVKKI

In the case of `Cc1ccc(S(=O)(=O)c2nnn3c2[nH]c(=O)c2ccc(N4CCN(CC(=O)NCc5cccnc5)CC4)cc23)c(C)c1` [Compound 111], the pIC50 (commonly −log10 of the IC50, conventionally taken in molar units) was 4.07 to 4.77 under setting [1] and above 5.77 under setting [2].
For the molecule `Cc1ccc(S(=O)(=O)c2nnn3c2[nH]c(=O)c2ccc(N4CCN(CC(=O)N5CC(C)CC(C)C5)CC4)cc23)c(C)c1` (mixture of isomers) [Compound 63], the “Ratio IC50 (in presence of HSA)/IC50 (in absence of HSA)” value (from here on “Ratio IC50 (in presence of HSA)/IC50”) is on record as “++ (++: 25 < ratio ≤ 125)”. In addition, the “IC50 at 40 mg/mL HSA” value under setting [3] was “++ (++: 10 μg/mL < IC50 ≤ 50 μg/mL)”. The “IC50 without HSA” value under setting [4] is listed as “+++ (+++: IC50 ≤ 1 μg/mL)”.
Take `Cc1ccc(S(=O)(=O)c2nnn3c2[nH]c(=O)c2ccc(N4CCN(CC(=O)NCCN5CCCC5)CC4)cc23)c(C)c1` [Compound 94]: the negative-log IC50 (pIC50) reads like this: under setting [1], 4.07 to 4.77; under setting [2], 5.07 to 5.77.
The matching figures for `Cc1ccc(S(=O)(=O)c2nnn3c2[nH]c(=O)c2ccc(N4CCN(CC(=O)N(C)C5CCCCC5)CC4)cc23)c(C)c1` [Compound 39]: 4.07 to 4.77 and above 5.77.
For `Cc1ccc(S(=O)(=O)c2nnn3c2[nH]c(=O)c2ccc(N4CCN(CC(=O)NC5CC5)CC4)cc23)c(C)c1` [Compound 33] the same measures were 4.03 to 4.73 and above 5.73.
As for `Cc1ccc(S(=O)(=O)c2nnn3c2[nH]c(=O)c2ccc(N4CCN(CC(=O)NCCC5CCCN5C)CC4)cc23)c(C)c1` (stereo not shown) [Compound 95], the “Ratio IC50 (in presence of HSA)/IC50” value was “+++ (+++: ratio ≤ 25)”. In addition, the “IC50 at 40 mg/mL HSA” value under setting [3] was “++ (++: 10 μg/mL < IC50 ≤ 50 μg/mL)”. For the same molecule, the “IC50 without HSA” value under setting [4] is reported as “++ (++: 1 μg/mL < IC50 ≤ 5 μg/mL)”.
On to `Cc1ccc(S(=O)(=O)c2nnn3c2[nH]c(=O)c2ccc(N4CCN(CC(=O)N5CCCN(CCO)CC5)CC4)cc23)c(C)c1` [Compound 71], for which the pIC50 is 4.10 to 4.79 under setting [1] and 5.10 to 5.79 under setting [2].
On to `Cc1ccc(S(=O)(=O)c2nnn3c2[nH]c(=O)c2ccc(N4CCCN(CC(=O)NC5CCN(C)CC5)CC4)cc23)c(C)c1` [Compound 102], for which the “Ratio IC50 (in presence of HSA)/IC50” value is “+++ (+++: ratio ≤ 25)”. The “IC50 at 40 mg/mL HSA” value under setting [3] is on record as “++ (++: 10 μg/mL < IC50 ≤ 50 μg/mL)”. For the same molecule, the “IC50 without HSA” value under setting [4] was “++ (++: 1 μg/mL < IC50 ≤ 5 μg/mL)”.
`Cc1ccc(S(=O)(=O)c2nnn3c2[nH]c(=O)c2ccc(N4CCN(CC(=O)NCCO)CC4)cc23)c(C)c1` [Compound 19]: the pIC50 was 4.03 to 4.73 under setting [1] and above 5.73 under setting [2].
The matching figures for `Cc1ccc(S(=O)(=O)c2nnn3c2[nH]c(=O)c2ccc(N4CCN(CC(=O)NC5CCC5)CC4)cc23)c(C)c1` [Compound 34]: 4.04 to 4.74 and above 5.74.
With `Cc1ccc(S(=O)(=O)c2nnn3c2[nH]c(=O)c2ccc(N4CCN(CC(=O)NC5CCNCC5)CC4)cc23)c(C)c1` [Compound 140], the pIC50 is 4.06 to 4.76 under setting [1] and 5.06 to 5.76 under setting [2].
For `Cc1ccc(S(=O)(=O)c2nnn3c2[nH]c(=O)c2ccc(N4CCN(CC(=O)N5CCN6CCCC6C5)CC4)cc23)c(C)c1` (stereo not shown) [Compound 130] the same measures were above 4.78 and above 5.78.
As to `Cc1ccc(S(=O)(=O)c2nnn3c2[nH]c(=O)c2ccc(N4CCCN(CC(=O)N5CCCC5)CC4)cc23)c(C)c1` [Compound 83], the “Ratio IC50 (in presence of HSA)/IC50” value is “+++ (+++: ratio ≤ 25)”. In addition, under setting [3], the “IC50 at 40 mg/mL HSA” value is given as “+++ (+++: IC50 ≤ 10 μg/mL)”. Besides, the “IC50 without HSA” value under setting [4] was “++ (++: 1 μg/mL < IC50 ≤ 5 μg/mL)”.
Take `CNC(=O)CN1CCN(c2ccc3c(=O)[nH]c4c(S(=O)(=O)c5ccc(C)cc5C)nnn4c3c2)CC1` [Compound 3]: the pIC50 is above 4.71 under setting [1] and above 5.71 under setting [2].
For `Cc1ccc(S(=O)(=O)c2nnn3c2[nH]c(=O)c2ccc(N4CCN(CC(=O)NCCCCO)CC4)cc23)c(C)c1` [Compound 20], the pIC50 runs as follows: under setting [1], 4.06 to 4.75; under setting [2], above 5.75.
For `CCNC(=O)CN1CCN(c2ccc3c(=O)[nH]c4c(S(=O)(=O)c5ccc(C)cc5C)nnn4c3c2)CC1` [Compound 4], the pIC50 by setting is: under setting [1], above 4.72; under setting [2], above 5.72.
For `Cc1ccc(S(=O)(=O)c2nnn3c2[nH]c(=O)c2ccc(N4CCN(CC(=O)NCC5CCCCC5)CC4)cc23)c(C)c1` [Compound 40] the same measures were above 4.77 and above 5.77.
In the case of `O=C(CN1CCN(c2ccc3c(=O)[nH]c4c(S(=O)(=O)c5ccc(C(F)(F)F)cc5)nnn4c3c2)CC1)N1CCCC1` [Compound 164], the pIC50 by setting is: under setting [1], 4.07 to 4.77; under setting [2], 5.07 to 5.77.
The matching figures for `Cc1ccc(S(=O)(=O)c2nnn3c2[nH]c(=O)c2ccc(N4CCN(CC(=O)NC5CNC5)CC4)cc23)c(C)c1` [Compound 138]: 4.04 to 4.74 and 5.04 to 5.74.
For the molecule `Cc1ccc(S(=O)(=O)c2nnn3c2[nH]c(=O)c2ccc(N4CCN(CC(=O)NCCOCCOCCO)CC4)cc23)c(C)c1` [Compound 22], the pIC50 by setting is: under setting [1], 4.10 to 4.80; under setting [2], 5.10 to 5.80.
On to `CC(C)c1ccc(S(=O)(=O)c2nnn3c2[nH]c(=O)c2ccc(N4CCN(CC(=O)N5CCCC5)CC4)cc23)cc1` [Compound 166], for which the “Ratio IC50 (in presence of HSA)/IC50” value was “++ (++: 25 < ratio ≤ 125)”. The “IC50 at 40 mg/mL HSA” value under setting [3] is “++ (++: 10 μg/mL < IC50 ≤ 50 μg/mL)”. For the same molecule, the “IC50 without HSA” value under setting [4] is on record as “+++ (+++: IC50 ≤ 1 μg/mL)”.
For the molecule `Cc1ccc(S(=O)(=O)c2nnn3c2[nH]c(=O)c2ccc(N4CCN(CC(=O)N(C)C)CC4)cc23)c(C)c1` [Compound 8], the pIC50 by setting is: under setting [1], 4.02 to 4.72; under setting [2], above 5.72.
For `Cc1ccc(S(=O)(=O)c2nnn3c2[nH]c(=O)c2ccc(N4CCN(CC(=O)NCC5CCCC5)CC4)cc23)c(C)c1` [Compound 37] the same measures were above 4.76 and above 5.76.
For `Cc1ccc(S(=O)(=O)c2nnn3c2[nH]c(=O)c2ccc(N4CCN(CC(=O)NCc5cocn5)CC4)cc23)c(C)c1` [Compound 114] the same measures were 4.06 to 4.76 and above 5.76.
`Cc1ccc(S(=O)(=O)c2nnn3c2[nH]c(=O)c2ccc(N4CCN(CC(=O)N5CCCN(C(C)C)CC5)CC4)cc23)c(C)c1` [Compound 70]: the pIC50 was 4.09 to 4.79 under setting [1] and above 5.79 under setting [2].
The matching figures for `Cc1ccc(S(=O)(=O)c2nnn3c2[nH]c(=O)c2ccc(N4CCN(CC(=O)NCCc5cccs5)CC4)cc23)c(C)c1` [Compound 116]: 4.08 to 4.78 and above 5.78.
For `Cc1ccc(S(=O)(=O)c2nnn3c2[nH]c(=O)c2ccc(N4CCN(CC(=O)NCc5ccco5)CC4)cc23)c(C)c1` [Compound 113] the same measures were 4.06 to 4.76 and above 5.76.
The matching figures for `Cc1ccc(S(=O)(=O)c2nnn3c2[nH]c(=O)c2ccc(N4CCN(CC(=O)NC5CCCCC5)CC4)cc23)c(C)c1` [Compound 38]: 4.06 to 4.76 and above 5.76.
As for `C#CCNC(=O)CN1CCN(c2ccc3c(=O)[nH]c4c(S(=O)(=O)c5ccc(C)cc5C)nnn4c3c2)CC1` [Compound 23], the pIC50 reads like this: under setting [1], above 4.73; under setting [2], 5.03 to 5.73.
For the molecule `CCN1CCCC1CNC(=O)CN1CCN(c2ccc3c(=O)[nH]c4c(S(=O)(=O)c5ccc(C)cc5C)nnn4c3c2)CC1` (stereo not shown) [Compound 93], the pIC50 runs as follows: under setting [1], above 4.78; under setting [2], 5.08 to 5.78.
For `Cc1ccc(S(=O)(=O)c2nnn3c2[nH]c(=O)c2ccc(N4CCN(CC(=O)N5CCCOCC5)CC4)cc23)c(C)c1` [Compound 57] the same measures were 4.06 to 4.76 and above 5.76.

The record behind these values is patent US20250376472A1, “3-(PHENYLSULFONYL)-[1,2,3]TRIAZOLO[1,5A]QUINAZOLIN-5(4H)-ONE DERIVATIVES” (priority 2022, published 2025).
